Reference: patent US20250127787A1, “METHODS FOR TREATING PERIPHERAL NEUROPATHY” (University of Pittsburgh - Of the Commonwealth System of …, priority 2021, published 2025)
“Also recorded” adds a separate entry of the source.

Experiments:
[1] = test system: inosine and guanosine; experiment: Purine levels (inosine, guanosine) in CYP-CIPN rat epidermis (footpad); format: in vivo; conditions: 8-AG 5 mg/kg/day in drinking water
Method: (§1) Animals. This study employed female Harlan Sprague Dawley (HSD) rats (3-4 mo; Envigo, Indianapolis, IN) and were divided into the following groups: 1) Control, 2) Cyclophosphamide (CYP, 75 mg/kg i.p. in saline vehicle; administered on days 0, 3 and 6); 3) 8-aminoguanine (8-AG; 5 mg/kg/day in drinking water; beginning 2 weeks prior to CYP and continuing until sacrifice (day 8)). The dose of 8-AG is based on our preliminary and published experiments. […] The investigation conforms to the Guide for the Care and Use of Laboratory Animals published by the US National Institutes of Health (NIH Publication No. 85-23, revised 1996). In addition, all tissues (dorsal root ganglion, spinal cord, peripheral nerves and hindpaw epidermis) were removed from isoflurane anesthetized rats and the tissue was used for various experimental approaches as described below. At the end of tissue removal, animals were sacrificed by thoracotomy.

[2] = test system: Mst3b; experiment: Mst3b expression in CYP-CIPN rat epidermis, Western immunoblotting; format: in vivo; conditions: 8-AG 5 mg/kg/day in drinking water
Method: as §1, with “In addition, all tissues (dorsal root ganglion, spinal cord, peripheral nerves and hindpaw epidermis) were removed from isoflurane anesthetized rats and the tissue was used for various experimental approaches as described below. At the end of tissue removal, animals were sacrificed by thoracotomy.” left out
(§2) Western immunoblotting: Following the testing paradigms, rats were deeply anesthetized and tissues (e.g., epidermis, peripheral sciatic nerves, spinal cord segments (L3-L5) and dorsal root ganglia (L3-L5) were removed, and a portion of each preparation was homogenized using Lysing Matrix D in a FASTPREP® 24 instrument (MP Biomedicals, Solon, OH) in HBSS [5 mM KCl, 0.3 mM KH2PO4, 138 mM NaCl, 4 mM NaHO3, 0.3 mM Na2HCO3, 0.3 mM Na2HPO4, 5.6 mM glucose and 10 mM Hepes, pH 7.4 containing complete protease inhibitor cocktail (1 tablet/10 ml, Roche, Indianapolis, IN)] and phosphatase inhibitor cocktail (Sigma, 1:100). […] The protein concentrations of the supernatants were determined using the Pierce BCA protein assay (Thermo Scientific, Rockford, IL). […]

[3] = test system: PGP 9.5; experiment: PGP 9.5 expression in CYP-CIPN rat hindpaw epidermis, Western immunoblotting; format: in vivo; conditions: 8-AG 5 mg/kg/day in drinking water
Method: as §1, with “In addition, all tissues (dorsal root ganglion, spinal cord, peripheral nerves and hindpaw epidermis) were removed from isoflurane anesthetized rats and the tissue was used for various experimental approaches as described below. At the end of tissue removal, animals were sacrificed by thoracotomy.” left out
as §2

[4] = test system: PAC-CIPN rats; experiment: Von Frey sensory testing in PAC-CIPN rats; format: in vivo, rat; conditions: hindpaw footpad, paclitaxel 2 mg/kg i.p., 8-AG 5 mg/kg/day in drinking water
Method: Animals: This study employed female Harlan Sprague Dawley (HSD) rats (3-4 mo; Envigo, Indianapolis, IN) and were divided into the following groups: 1) Control, 2) Cyclophosphamide (CYP, 75 mg/kg i.p. in saline vehicle; administered on days 0, 3 and 6 until sacrifice on day 8); 4) Paclitaxel (2 mg/kg i.p., 2 mg/kg i.p. in saline from a stock solution of 50/50 CremophorEL/ethanol); administered on days 0, 2, 4 and 6 until sacrifice on day 8; 4) 8-aminoguanine (8-AG; 5 mg/kg/day in drinking water; beginning 2 weeks prior to either CYP or PAC and continuing until sacrifice (day 8)). The dose of 8-AG was based on the experiments described above. […] All tissues (spinal cord and hindpaw epidermis) were removed from isoflurane anesthetized rats and the tissue was used for various experimental approaches as described below. At the end of tissue removal, animals were sacrificed by thoracotomy.
Von Frey sensory testing, Control, PAC and 8-AG-treated PAC rats were placed in an elevated chamber on a wire mesh floor and after acclimatization, calibrated von Frey microfilaments were applied to determine paw withdrawal threshold (PWT, in grams). Briefly, microfilaments (Stoelting Corp, USA) were applied with different forces perpendicularly to the plantar surface of both ipsilateral and contralateral hindpaw by increasing and decreasing stimulus intensity. […]

## Nc1nc2[nH]c(N)nc2c(=O)[nH]1 [8-AG, 8-Aminoguanine]
[1]
  effect on CYP-induced decrease in guanosine levels: normalizes; also recorded: completely restored
  effect on CYP-induced decrease in inosine levels: normalizes; also recorded: completely restored
[2]
  effect on CYP-induced decrease in Mst3b expression: completely restored; also recorded: completely prevented; also recorded: effective in restoring
[3]
  effect on CYP-induced decrease in PGP 9.5 expression: restored to control values; also recorded: normalized
[4]
  effect on PAC-induced increase in sensitivity to mechanical stimuli (paw withdrawal threshold): restored to control values; also recorded: normalized
